Measurements as given in US9884043B2, “RORgammaT inhibitors” (Merck Sharp & Dohme Corp., priority 2011, dated 2018).

The compounds below were run against T1, HIS-tagged RORγ-LBD (Homo sapiens, UniProt P51449) (assay: TR-FRET assay (Protocol B), RORγ-LBD lysate / biotinylated SRC1-2 LXXLL peptide). Details: unpurified RORγ-LBD lysate ~10 nM, SRC1-2 peptide 450 nM.
T1 construct: HIS-tagged RORγ-LBD was recombinantly expressed in SF9 cells using a baculovirus expression system; made in house; host or cells: SF9 cells, baculovirus; crude lysate used
T1 sequence (P51449 269-508 limits assumed): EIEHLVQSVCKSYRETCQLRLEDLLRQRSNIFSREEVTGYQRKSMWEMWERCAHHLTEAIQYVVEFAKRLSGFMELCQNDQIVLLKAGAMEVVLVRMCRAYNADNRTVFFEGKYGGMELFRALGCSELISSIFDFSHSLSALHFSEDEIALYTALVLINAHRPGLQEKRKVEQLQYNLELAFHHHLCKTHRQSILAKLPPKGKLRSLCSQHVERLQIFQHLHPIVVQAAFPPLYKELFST
Assay type: biochemical
Source text: Activation of RORgammaT activity can be measured using e.g. biochemical TR-FRET assay. In such an assay, interaction of cofactor-derived peptides with human RORgammaT-Ligand Binding Domain (LBD) can be measured.
To identify novel antagonists of RORgammaT, an assay was developed which employs the interaction of RORgammaT with its co-activator peptide SRC1_2. […] The assay was run following three slightly different protocols, i.e. Protocol A, Protocol B, and Protocol C, which are described below.
TR-Fret Assay (Protocol B)
HIS-tagged RORγ-LBD was recombinantly expressed in SF9 cells using a baculovirus expression system. The protein was not purified. Cells were lysed and the lysate was used as a source for RORγ-LBD for the assay. A 1:80 dilution of RORγ-LBD lysate in assay buffer (25 mM HEPES pH 7.0, 100 mM NaCl, 0.01% Tween, 0.1% BSA) was prepared and 5 μL was added to each well (RORγ-LBD final concentration ˜10 nM). Control wells received lysate from SF9 cells not expressing RORγ-LBD.
Compounds to be tested were diluted to 100× final test concentration in DMSO and further diluted to 4× final test concentration using assay buffer to provide the test compound mixture. An aliquot (5 μL) of the test compound mixture was added to each well.

`O=C(c1c(Cl)cccc1C(F)(F)F)n1nc(-c2ccc(C(O)(C(F)(F)F)C(F)(F)F)cc2)c2c(F)cccc21` [Example 24D, (2-chloro-6-(tri-fluoromethyl)-phenyl)(4-fluoro-3-(4-(1,1,1,3,3,3-hexafluoro-2-hydroxypropan-2-yl)phenyl)-1H-indazol-1-yl)methanone] was tested. Which IC50 did it give?
The IC50 was 500 to 10000 nM.

With `CC(C)c1cc(-c2nn(C(=O)c3c(Cl)cccc3C(F)(F)F)c3ccccc23)ccc1C(=O)O` [Example 24AP, 4-(1-(2-chloro-6-(trifluoromethyl)-benzoyl)-1H-indazol-3-yl)-2-isopropylbenzoic acid] as the compound, how does the IC50 read?
Its IC50 is 500 to 10000 nM.

With `O=C(O)c1ccc(-c2nn(C(=O)c3c(Cl)cccc3C(F)(F)F)c3cc(O)ccc23)cc1` [Example 24BA, 4-(1-(2-chloro-6-(trifluoromethyl)-benzoyl)-6-hydroxy-1H-indazol-3-yl)benzoic acid] as the compound, how does the IC50 read?
The IC50 was < 50 nM.

With `CC(=O)Oc1cc(-c2nn(C(=O)c3c(Cl)cccc3C(F)(F)F)c3cccnc23)ccc1C(=O)O` [Example 26I, 2-acetoxy-4-(1-(2-chloro-6-(trifluoromethyl)benzoyl)-1H-pyrazolo[4,3-b]pyridin-3-yl)benzoic acid] as the compound, how does the IC50 read?
Its IC50 is < 50 nM.

How did the IC50 turn out when `O=C(O)c1ccc(-c2nn(C(=O)c3c(Cl)cccc3C(F)(F)F)c3cc(C(=O)NCCCCO)ccc23)cc1` [Example 25P, 4-(1-(2-chloro-6-(trifluoromethyl)benzoyl)-6-(4-hydroxybutyl-carbamoyl)-1H-indazol-3-yl)benzoic acid] was run?
The IC50 was < 50 nM.

`Cc1cc(C(=O)O)ccc1-c1nn(C(=O)c2c(Cl)cccc2C(F)(F)F)c2cccnc12` [Example 24AF, 4-(1-(2-chloro-6-(trifluoromethyl)-benzoyl)-1H-pyrazolo[4,3-b]pyridin-3-yl)-3-methylbenzoic acid] was tested. Which IC50 did it give?
The IC50 was < 50 nM.

For `Cc1cc(-c2nn(C(=O)c3c(Cl)cccc3C(F)(F)F)c3cccc(F)c23)ccc1C(=O)O` [Example 24P, 4-(1-(2-chloro-6-(trifluoromethyl)-benzoyl)-4-fluoro-1H-indazol-3-yl)-2-methylbenzoic acid], which IC50 is on record?
The IC50 was < 50 nM.

How did the IC50 turn out when `CN(C)C(=O)c1ccc2c(-c3ccc(C(=O)O)c(O)c3)nn(C(=O)c3c(Cl)cccc3C(F)(F)F)c2c1` [Example 26J, 4-(1-(2-chloro-6-(trifluoromethyl)benzoyl)-6-(dimethyl-carbamoyl)-1H-indazol-3-yl)-2-hydroxybenzoic acid] was run?
Its IC50 is < 50 nM.

Which IC50 does the source give for `CN(C)C(=O)c1ccc2c(-c3ccc(C(=O)O)cc3)nn(C(=O)c3c(Cl)cccc3C(F)(F)F)c2c1` [Example 25B, 4-(1-(2-chloro-6-(trifluoromethyl)benzoyl)-6-(dimethyl-carbamoyl)-1H-indazol-3-yl)benzoic acid] here?
The IC50 was < 50 nM.

For `O=C(O)c1ccc(-c2nn(C(=O)c3c(Cl)cccc3C(F)(F)F)c3cccnc23)cc1F` [Example 24AH, 4-(1-(2-chloro-6-(trifluoromethyl)-benzoyl)-1H-pyrazolo[4,3-b]pyridin-3-yl)-2-fluorobenzoic acid], which IC50 is on record?
Its IC50 is < 50 nM.

How did the IC50 turn out when `COc1cc(C(=O)O)cc(OC)c1-c1nn(C(=O)c2c(Cl)cccc2C(F)(F)F)c2cccc(F)c12` [Example 24T, 4-(1-(2-chloro-6-(trifluoromethyl)-benzoyl)-4-fluoro-1H-indazol-3-yl)-3,5-dimethoxybenzoic acid] was run?
Its IC50 is > 10000 nM.

`Cc1cc(C(=O)O)c(F)cc1-c1nn(C(=O)c2c(Cl)cccc2C(F)(F)F)c2cccc(F)c12` [Example 24K, 4-(1-(2-chloro-6-(trifluoromethyl)-benzoyl)-4-fluoro-1H-indazol-3-yl)-2-fluoro-5-methylbenzoic acid] was tested. Which IC50 did it give?
Its IC50 is < 50 nM.

Which IC50 does the source give for `O=C(O)Cc1ccc(-c2nn(C(=O)c3c(Cl)cccc3C(F)(F)F)c3cccnc23)cc1` [Example 24AD, 2-(4-(1-(2-chloro-6-(trifluoromethyl)-benzoyl)-1H-pyrazolo[4,3-b]pyridin-3-yl)phenyl)acetic acid] here?
The IC50 was 500 to 10000 nM.

Which IC50 does the source give for `O=C(O)c1ccc(-c2nn(C(=O)c3c(Cl)cccc3C(F)(F)F)c3cc(C(=O)NCCCO)ccc23)c(F)c1` [Example 25M, 4-(1-(2-chloro-6-(trifluoromethyl)benzoyl)-6-(3-hydroxypropyl-carbamoyl)-1H-indazol-3-yl)-3-fluorobenzoic acid] here?
Its IC50 is < 50 nM.

Which IC50 does the source give for `O=C(O)c1cc(F)c(-c2nn(C(=O)c3c(Cl)cccc3C(F)(F)F)c3cccc(F)c23)cc1F` [Example 24W, 4-(1-(2-chloro-6-(trifluoromethyl)-benzoyl)-4-fluoro-1H-indazol-3-yl)-2,5-difluorobenzoic acid] here?
Its IC50 is < 50 nM.

For `O=C(O)c1cc(F)c(-c2nn(C(=O)c3c(Cl)cccc3C(F)(F)F)c3cccnc23)cc1F` [Example 24AK, 4-(1-(2-chloro-6-(trifluoromethyl)-benzoyl)-1H-pyrazolo[4,3-b]pyridin-3-yl)-2,5-difluorobenzoic acid], which IC50 is on record?
Its IC50 is < 50 nM.

With `O=C(O)c1ccc(-c2nn(C(=O)c3c(Cl)cccc3C(F)(F)F)c3cc(C(=O)NCCCO)ccc23)cc1` [Example 25L, 4-(1-(2-chloro-6-(trifluoromethyl)benzoyl)-6-(3-hydroxypropyl-carbamoyl)-1H-indazol-3-yl)benzoic acid] as the compound, how does the IC50 read?
Its IC50 is < 50 nM.

Which IC50 does the source give for `O=C(NCCO)c1ccc2c(-c3ccc(C(=O)O)c(F)c3)nn(C(=O)c3c(Cl)cccc3C(F)(F)F)c2c1` [Example 25G, 4-(1-(2-chloro-6-(trifluoromethyl)benzoyl)-6-(2-hydroxyethyl-carbamoyl)-1H-indazol-3-yl)-2-fluorobenzoic acid] here?
The IC50 was 50 to 500 nM.

For `O=C(O)c1ccc(-c2nn(C(=O)c3c(Cl)cccc3C(F)(F)F)c3cccnc23)c(Cl)c1` [Example 24AG, 3-chloro-4-(1-(2-chloro-6-(trifluoromethyl)-benzoyl)-1H-pyrazolo[4,3-b]pyridin-3-yl)benzoic acid], which IC50 is on record?
The IC50 was < 50 nM.

Which IC50 does the source give for `O=C(c1c(Cl)cccc1C(F)(F)F)n1nc(-c2ccc(C(O)(C(F)(F)F)C(F)(F)F)cc2)c2ncccc21` [Example 24AE, (2-chloro-6-(trifluoromethyl)-phenyl)(3-(4-(1,1,1,3,3,3-hexafluoro-2-hydroxypropan-2-yl)phenyl)-1H-pyrazolo[4,3-b]pyridin-1-yl)methanone] here?
The IC50 was 500 to 10000 nM.

With `CC(O)CNC(=O)c1ccc2c(-c3ccc(C(=O)O)cc3)nn(C(=O)c3c(Cl)cccc3C(F)(F)F)c2c1` (stereo not drawn) [Example 25O, 4-(1-(2-chloro-6-(trifluoromethyl)benzoyl)-6-(2-hydroxypropyl-carbamoyl)-1H-indazol-3-yl)benzoic acid] as the compound, how does the IC50 read?
The IC50 was < 50 nM.

How did the IC50 turn out when `CN(C)C(=O)c1ccc2c(-c3ccc(C(=O)O)cc3F)nn(C(=O)c3c(Cl)cccc3C(F)(F)F)c2c1` [Example 25E, 4-(1-(2-chloro-6-(trifluoromethyl)benzoyl)-6-(dimethyl-carbamoyl)-1H-indazol-3-yl)-3-fluorobenzoic acid] was run?
Its IC50 is < 50 nM.

How did the IC50 turn out when `COc1cccc(F)c1C(=O)n1nc(-c2ccc(C(=O)O)cc2)c2ncccc21` [Example 24AM, 4-(1-(2-fluoro-6-methoxybenzoyl)-1H-pyrazolo[4,3-b]pyridin-3-yl)benzoic acid] was run?
The IC50 was < 50 nM.

Which IC50 does the source give for `O=C(O)c1c(O)cc(-c2nn(C(=O)c3c(Cl)cccc3C(F)(F)F)c3cccc(F)c23)cc1F` [Example 26D, 4-(1-(2-chloro-6-(trifluoromethyl)benzoyl)-4-fluoro-1H-indazol-3-yl)-2-fluoro-6-hydroxybenzoic acid] here?
The IC50 was < 50 nM.

With `O=C(O)c1ccc(-c2nn(C(=O)c3c(Cl)cccc3C(F)(F)F)c3ccccc23)cc1C(F)F` [Example 28, 4-(1-(2-chloro-6-(trifluoromethyl)benzoyl)-1H-indazol-3-yl)-2-(difluoromethyl)benzoic acid] as the compound, how does the IC50 read?
The IC50 was < 50 nM.

How did the IC50 turn out when `O=C(O)c1ccc(-c2nn(C(=O)c3c(Cl)cccc3C(F)(F)F)c3cc(O)cc(F)c23)cc1` [Example 24BC, 4-(1-(2-chloro-6-(trifluoromethyl)-benzoyl)-4-fluoro-6-hydroxy-1H-indazol-3-yl)benzoic acid] was run?
Its IC50 is 500 to 10000 nM.

Which IC50 does the source give for `O=C(O)c1ccc(-c2nn(C(=O)c3c(Cl)cccc3C(F)(F)F)c3cccc(F)c23)c(F)c1F` [Example 24V, 4-(1-(2-chloro-6-(trifluoromethyl)-benzoyl)-4-fluoro-1H-indazol-3-yl)-2,3-difluorobenzoic acid] here?
Its IC50 is < 50 nM.

Which IC50 does the source give for `O=C(O)c1ccc(-c2nn(C(=O)c3c(Cl)cccc3C(F)(F)F)c3cccc(C(F)(F)F)c23)cc1` [Example 24AO, 4-(1-(2-chloro-6-(trifluoromethyl)-benzoyl)-4-(trifluoromethyl)-1H-indazol-3-yl)benzoic acid] here?
The IC50 was < 50 nM.

For `O=C(O)c1ccc(-c2nn(C(=O)c3c(Cl)cccc3C(F)(F)F)c3cccnc23)cc1O` [Example 26H, 4-(1-(2-chloro-6-(trifluoromethyl)benzoyl)-1H-pyrazolo[4,3-b]pyridin-3-yl)-2-hydroxybenzoic acid], which IC50 is on record?
The IC50 was < 50 nM.

For `O=C(O)Cc1ccc(-c2nn(C(=O)c3c(Cl)cccc3C(F)(F)F)c3cccc(F)c23)cc1` [Example 24G, 2-(4-(1-(2-chloro-6-(trifluoromethyl)-benzoyl)-4-fluoro-1H-indazol-3-yl)phenyl)acetic acid], which IC50 is on record?
Its IC50 is 500 to 10000 nM.
